According to article doi:10.1101/2025.07.11.664294 (bioRxiv, 2025):

What was measured:
U87MG glioblastoma cells = test: Wound-healing scratch assay; format: cell-based, human; conditions: 50 μM peptide, 24 h, mitomycin C 3 μg/ml; wound closure by ImageJ
Method: The U87MG GBM cell line (U-87 MG, ATCC® HTB-14) was cultured in Dulbecco’s Modified Eagle Medium (DMEM) and appropriate growth factors at 37°C in a humidified 5% CO2 atmosphere. Cells were seeded at 40,000 cells per well in 96-well plates and allowed to adhere overnight. Then, mitomycin C (3 μg/ml) was added to inhibit further cell replication, and 50 μM Ctx and its analogs were added. Untreated wells served as a control. Wounds were created by manually scratching the cell monolayer with a 200 μL multi-channel pipette tip, and plates were analyzed at 0 h and 24 h time points using the MetaXpress image acquisition software (Molecular Devices, San Jose, CA). The ImageJ Ver. 1.54f program (NIH (National Institutes of Health) was used for image analysis. Wound closure was quantified using the Wound_Healing_Size_tool_plugin., analyzing the percentage of wound area covered by migrating cells. To determine significance, statistical analysis was performed using appropriate methods (t-test or ANOVA) using GraphPad Prism software, version 10.0.3.

MMP-2 [1] = test: MMP-2 inhibition assay (Enzo MMP-2 drug discovery kit); format: biochemical, human; conditions: NNGH positive control
Method: The MMP-2 inhibition assay was performed using the Enzo Life Sciences MMP-2 drug discovery kit. and the quenched fluorogenic substrate OmniMMP RED. Reference substrate was diluted to a final concentration of 5 μM, while the MMP-2 enzyme was diluted to 58 mU/μL, and the N-Isobutyl-N-(4-methoxyphenylsulfonyl)glycyl hydroxamic acid (NNGH) inhibitor was diluted to a concentration of 1/200 in assay buffer. […] The assay was performed using a black 96-well microplate. Fluorescence was measured at excitation/emission wavelengths of 545/576 nm, with a cutoff at 570 nm using Gen5 microplate reader (BioTeK, Shoreline, WA). Baseline fluorescence was recorded before adding NNGH inhibitor which was used as a positive control for MMP-2 inhibition. Reaction mixtures in the plate were incubated at 37 °C for 10 min, and fluorescence was measured at 10 min intervals for the first 30 min, then at 30 min intervals until 2 h had elapsed. Percentage of inhibition of MMP-2 activity by Ctx and its analogs was calculated as percent of control. Statistical analysis was performed using ANOVA with GraphPad Prism software, version 10.0.3.

recombinant MMP-2 = test: Differential scanning fluorimetry (DSF); format: binding, human; conditions: 1 μM MMP-2, 30 μM (Ctx) or 50 μM (P75 and P76) peptide, PBS pH 7.1, SYPRO-orange, average and SD of n ≥ 3
Method: The melting temperatures (Tm) of recombinant MMP-2 and its complexes with peptides were ascertained using BioRad CFX384 Touch real-time PCR (Hercules, CA, USA). The experiments were performed as previously described. The unfolding of the protein was detected using the fluorescent SYPRO-orange dye (Invitrogen, Carlsbad, CA, USA). MMP-2 and prospective ligand peptides were dissolved in 7.1 pH phosphate buffered saline (154 mM NaCl, 5.6 mM Na2PO4, 1.1mM KH2PO4), and the reaction mixture was made to a final concentration of 1 μM of protein, either 30 μM (Ctx) or 50 μM (P75 and P76) of peptide, and 1000x dilution of the SYPRO-Orange dye stock from the manufacturer. Excitation and emission filters of the dye were set at 450–490 nm and 560–580 nm, respectively. The temperature for the reaction was held at 25 °C for 5 min, and then a gradient of 25 °C to 95 °C was applied at a rate of 0.3 °C/min, and the fluorescence was recorded. To determine Tm of the protein, the first derivatives of melting curves were plotted using GraphPad Prism software, version 10.0.3.

Neuropilin-1 (NRP-1) = molecular target: T1, Neuropilin-1 (NRP-1) (Homo sapiens, UniProt O14786); test: Surface plasmon resonance (SPR); format: binding; conditions: NRP-1 immobilized on NTA chip, steady-state affinity model, peptides 500 μM to 3.90 μM, n=3, 4 replicates, read-out: dissociation constant (KD) for NRP-1
T1 construct: containing amino acid residues Phe22-Lys644, with a poly-histidine tag at the C-terminus; purchased ACROBiosystems NR1-H5228
T1 sequence (O14786 22-644 isoform O14786-2): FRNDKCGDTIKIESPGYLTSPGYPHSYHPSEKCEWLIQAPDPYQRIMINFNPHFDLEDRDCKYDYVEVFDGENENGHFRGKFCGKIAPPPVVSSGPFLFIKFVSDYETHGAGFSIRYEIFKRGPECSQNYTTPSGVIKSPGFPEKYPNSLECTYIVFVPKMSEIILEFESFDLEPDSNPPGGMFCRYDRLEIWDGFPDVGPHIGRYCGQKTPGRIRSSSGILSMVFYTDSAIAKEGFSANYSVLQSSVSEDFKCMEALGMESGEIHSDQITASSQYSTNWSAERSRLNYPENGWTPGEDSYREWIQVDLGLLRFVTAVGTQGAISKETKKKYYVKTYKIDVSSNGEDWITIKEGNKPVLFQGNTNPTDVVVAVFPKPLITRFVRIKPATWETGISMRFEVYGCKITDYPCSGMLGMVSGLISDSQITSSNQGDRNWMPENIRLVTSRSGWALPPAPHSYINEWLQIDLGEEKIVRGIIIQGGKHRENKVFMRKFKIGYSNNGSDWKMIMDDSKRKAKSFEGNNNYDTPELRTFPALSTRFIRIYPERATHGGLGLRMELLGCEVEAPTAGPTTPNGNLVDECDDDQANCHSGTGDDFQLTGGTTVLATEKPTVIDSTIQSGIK
Method: (§1) Surface plasmon resonance (SPR) reagents, plates, and the NTA chip were purchased from GE Healthcare Life Sciences, now Cytiva (Marlborough, MA, USA). Measurements were performed using the Biacore 8000 SPR System (Marlborough, MA. USA). The running buffer used for protein immobilization and peptide binding consisted of 20 mM Tris, 150 mM NaCl, […] and 0.0005% Tween-20, adjusted to pH 7.4. MMP-2 and NRP-1 were immobilized onto the NTA chip at 15 nM and 25 nM concentration, respectively. Peptides were injected over the immobilized proteins using two-fold serial dilutions from 500 μM to 3.90 μM. Three experiments with four replicates of each were performed. The SPR response curves generated from the Biacore Insight Evaluation Software were fitted to a steady-state affinity model to obtain an equilibrium dissociation constant (KD) for each peptide — protein interaction.

MMP-2 [2] = test: Surface plasmon resonance (SPR); format: binding, human; conditions: MMP-2 immobilized on NTA chip; peptides 500 μM to 3.90 μM; pH 7.4
Method: as §1

[3] = peptides at 1 μM, 50 μM and 100 μM, quenched fluorogenic substrate, one-way ANOVA

Substance: Ac-[Cyc(28,33)]Ctx(27-34)-NH2 [Peptide P78]
- inhibition of U-87MG cell migration (U87MG glioblastoma cells): about 30%
- inhibition of MMP-2 enzymatic activity (MMP-2 [1]; [3]): not statistically significant

Substance: Ac-[Cys^26,Ser^28,33,Cyc(26,35)]Ctx(24-36)-NH2 [Peptide P76]
- inhibition of MMP-2 enzymatic activity (MMP-2 [1]; [3]): not statistically significant
- Change in melting temperature ΔTm ± SD (recombinant MMP-2): 0.63 ± 0.36 °C

Substance: Ac-[Ser^35,Cyc(28,33)]Ctx(24-36)-NH2 [Peptide P75]
- inhibition of U-87MG cell migration (U87MG glioblastoma cells): Inhibition of U-87MG cell migration
- inhibition of MMP-2 enzymatic activity (MMP-2 [1]; [3]): not statistically significant
- Change in melting temperature ΔTm ± SD (recombinant MMP-2): 0.76 ± 1.56 °C
- Kd (Neuropilin-1 (NRP-1)): 330 ± 146 µM

Substance: Chlorotoxin [Ctx, reference compound]
- binding to MMP-2 by SPR (MMP-2 [2]): did not bind
- inhibition of MMP-2 enzymatic activity (MMP-2 [1]; Ctx at 1 μM, 5 μM, 10 μM, 15 μM and 20 μM, quenched fluorogenic substrate OmniMMP RED): did not inhibit MMP-2 activity
- inhibition of MMP-2 enzymatic activity (MMP-2 [1]; [3]): not statistically significant
